The source of these data is patent US20230105982A1, “INSULIN-INCRETIN CONJUGATES” (Merck Sharp & Dohme Corp., priority 2021, published 2023).

Assay type in all cases: cell-based
For experiment [1], the target named is T1, human GCGR (Homo sapiens, UniProt P47871).
T1 construct: expressed in transfected cells
Briefly: cAMP activity assay, cells expressing human GCGR. As to conditions: for GCGR/GLP1R ratio: ratio of hGCGR EC50 to hGLP1R EC50, Table 5. How it is done:
(§1) Activity of the incretin peptides or the conjugates at the Glucagon receptor (GCGR) and GLP-1 receptor (GLP1R) may be measured in a cAMP activity assay as follows.
(§2) Peptides are dissolved in 100% DMSO and serially diluted to generate 10 point titrations. The peptide solutions are then transferred into 384-well assay plates (150 nL/well). Assay ready frozen cells expressing human GLP1R or human GCGR are suspended in growth media consisting of DMEM medium (GIBCO), 10% FBS (GIBCO), 1×NEAA(GIBCO), 1×P/S (GIBCO), 10 μg/mL Blasticidin (GIBCO) and 200 μg/mL Hygromycin (GIBCO). […] The cell suspensions (15 μL) are then added to the assay plates containing the peptide solutions (30,000 cells/well for human GCGR; 10,000 cells/well for human GLP1R). The cells are incubated for one hour at room temperature in the dark.
(§3) Production of cAMP may be determined using HitHunter™ cAMPXS kits (DiscoverX) following the manufacturer's protocol. The plates are incubated for overnight at room temperature in the dark. Luminescence may be measured using an EnVision Multilabel plate reader (Perkin Elmer). Native GLP-1 and Glucagon (Bachem) may be used as control peptides. EC50 values may be calculated using uses a 4 parameter logistic fit based on the Levenberg-Marquardt algorithm.

For experiment [2], the target named is human GLP1R (Homo sapiens, UniProt P43220). Briefly: cAMP activity assay, cells expressing human GLP1R. Particulars: hGLP1R EC50. How it is done:
as §1, §2, §3

Experiment [3] has as its system minipig IR. Kind of experiment: Insulin Receptor Phosphorylation (pAkt) Assay, CHO cells overexpressing minipig IR. As to conditions: Table 7, read-out: Insulin Receptor pAK Assay EC50 Minipig.

T1 sequence (P47871 26-477): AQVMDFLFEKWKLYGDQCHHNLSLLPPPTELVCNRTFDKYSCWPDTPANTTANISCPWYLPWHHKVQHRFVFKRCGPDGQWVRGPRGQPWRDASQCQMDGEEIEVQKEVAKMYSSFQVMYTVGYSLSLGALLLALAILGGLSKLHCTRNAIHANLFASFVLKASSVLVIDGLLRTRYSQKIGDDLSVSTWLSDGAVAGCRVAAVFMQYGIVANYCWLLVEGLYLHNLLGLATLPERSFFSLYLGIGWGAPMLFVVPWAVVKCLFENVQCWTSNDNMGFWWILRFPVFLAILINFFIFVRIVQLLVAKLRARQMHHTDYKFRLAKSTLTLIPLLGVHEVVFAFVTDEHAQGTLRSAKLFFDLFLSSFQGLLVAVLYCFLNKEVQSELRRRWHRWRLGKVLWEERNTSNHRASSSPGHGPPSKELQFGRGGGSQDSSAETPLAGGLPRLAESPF
Chain of human GLP1R (P43220 24-463): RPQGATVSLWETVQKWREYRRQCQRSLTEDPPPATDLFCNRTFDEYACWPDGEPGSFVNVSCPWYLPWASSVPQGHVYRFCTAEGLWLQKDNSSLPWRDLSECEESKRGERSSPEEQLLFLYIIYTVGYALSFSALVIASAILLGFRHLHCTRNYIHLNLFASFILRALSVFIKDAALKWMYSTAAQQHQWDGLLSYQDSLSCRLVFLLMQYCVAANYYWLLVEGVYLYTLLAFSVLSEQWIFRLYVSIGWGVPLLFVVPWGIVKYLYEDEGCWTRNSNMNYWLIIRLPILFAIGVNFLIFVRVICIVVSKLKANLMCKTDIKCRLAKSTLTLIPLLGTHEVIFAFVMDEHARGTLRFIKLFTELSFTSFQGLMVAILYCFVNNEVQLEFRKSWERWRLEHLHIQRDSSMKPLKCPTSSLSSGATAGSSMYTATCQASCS

Consider `CCCCCCCCCCCCCCCC(=O)N[C@@H](CCC(=O)N[C@@H](CCC(=O)NCCCC[C@H](NC(=O)[C@H](CC(=O)O)NC(=O)[C@H](CO)NC(=O)[C@@H](NC(=O)[C@H](Cc1ccccc1)NC(=O)[C@@H](NC(=O)CNC(=O)[C@H](CCC(N)=O)NC(=O)[C@@H](CO)NC(=O)[C@@H](N)Cc1c[nH]cn1)[C@@H](C)O)[C@@H](C)O)C(=O)N[C@@H](CO)C(=O)N[C@@H](CCCCN)C(=O)N[C@@H](Cc1ccc(O)cc1)C(=O)N[C@@H](CC(C)C)C(=O)N[C@@H](CC(=O)O)C(=O)NC(C)(C)C(=O)N[C@@H](CCCNC(=N)N)C(=O)N[C@@H](C)C(=O)N[C@@H](C)C(=O)N[C@@H](CCC(N)=O)C(=O)N[C@@H](CC(=O)O)C(=O)N[C@@H](Cc1ccccc1)C(=O)N[C@H](C(=O)N[C@@H](CCCCN=[N+]=[N-])C(=O)N[C@@H](Cc1c[nH]c2ccccc12)C(=O)N[C@@H](CC(C)C)C(=O)N[C@@H](CC(C)C)C(=O)N[C@@H](CC(=O)O)C(=O)N[C@H](C(N)=O)[C@@H](C)O)C(C)C)C(=O)O)C(=O)O` [PEP7], for which the GCGR/GLP1R ratio in experiment [1] turned out to be 0.2.
Take `CCCCCCCCCCCCCCCC(=O)N[C@@H](CCC(=O)N[C@@H](CCC(=O)NCCCC[C@H](NC(=O)[C@H](CC(=O)O)NC(=O)[C@H](CO)NC(=O)[C@@H](NC(=O)[C@H](Cc1ccccc1)NC(=O)[C@@H](NC(=O)CNC(=O)[C@H](CCC(N)=O)NC(=O)[C@@H](CO)NC(=O)[C@@H](N)Cc1c[nH]cn1)[C@@H](C)O)[C@@H](C)O)C(=O)N[C@@H](CO)C(=O)N[C@@H](CCCCN)C(=O)N[C@@H](Cc1ccc(O)cc1)C(=O)N[C@@H](CC(C)C)C(=O)N[C@@H](CC(=O)O)C(=O)N[C@@H](CCC(=O)O)C(=O)N[C@@H](CCCNC(=N)N)C(=O)N[C@@H](C)C(=O)N[C@@H](C)C(=O)N[C@@H](CCC(N)=O)C(=O)N[C@@H](CC(=O)O)C(=O)N[C@@H](Cc1ccccc1)C(=O)N[C@H](C(=O)N[C@@H](CCCCNC(=O)COCCOCCNC(=O)COCCOCCNC(=O)CCCCN=[N+]=[N-])C(=O)N[C@@H](Cc1c[nH]c2ccccc12)C(=O)N[C@@H](CC(C)C)C(=O)N[C@@H](CC(C)C)C(=O)N[C@@H](CC(=O)O)C(=O)N[C@H](C(N)=O)[C@@H](C)O)C(C)C)C(=O)O)C(=O)O` [PEP15]: the EC50 in experiment [2] stood at 0.03 nM; in experiment [1] (hGCGR_EC50), 0.02 nM. For the same molecule, in experiment [1], the GCGR/GLP1R ratio is 0.7.
In the case of Insulin levemir [IL], the concentration giving a half-maximal response (EC50) in experiment [3] was found to be 0.5 nM.
